From the supplement of paper PMC10307832

How the values were obtained:
Test in all cases: relative viability (nuclei count vs DMSO), 5 days (fraction); higher = more cells survive
Serdemetan = compound: c1ccc2c(CCNc3ccc(Nc4ccncc4)cc3)c[nH]c2c1 [Serdemetan]
Outline: (§1)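 Lung cancer cell lines in 1536-well plates were exposed by pinning to five library-drug doses (not always all listed) √10 apart, following an overnight hold at 37 °C. MetaXpress counted Hoechst-stained nuclei from 4× images taken after 5 days without medium change. Viability is the median ratio of treated-well to vehicle-well nuclei across plates. Plates required control CV below 25% and at least one doubling.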

Selisistat = compound: C1CC(C2=C(C1)C3=C(N2)C=CC(=C3)Cl)C(=O)N [Selisistat]
Outline: as §1

Serdemetan + Pemetrexed = compound: c1ccc2c(CCNc3ccc(Nc4ccncc4)cc3)c[nH]c2c1 [Serdemetan] + Nc1nc2[nH]cc(CCc3ccc(C(=O)N[C@@H](CCC(=O)O)C(=O)O)cc3)c2c(=O)[nH]1 [Pemetrexed] (partner 0.2 µM)
Outline: (§2)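 Relative viability is defined as nuclei in treated wells over nuclei in vehicle wells. Duplicate plates were run and medians reported. Lung cancer cell lines in 1536-well plates were dosed by pin tool one day after seeding, with one drug or with a fixed anchor-drug dose plus five library-drug doses (not always all listed) in √10 steps, and nuclei were counted after 5 days.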

Selisistat + OSI-027 = compound: C1CC(C2=C(C1)C3=C(N2)C=CC(=C3)Cl)C(=O)N [Selisistat] + COc1cccc2cc(-c3nc([C@H]4CC[C@H](C(=O)O)CC4)n4ncnc(N)c34)[nH]c12 [OSI-027] (partner 0.5 µM)
Outline: as §2

Row | Cell Line | relative viability (Serdemetan; 0.04 µM) | relative viability (Serdemetan; 0.1265 µM) | relative viability (Serdemetan; 0.4 µM) | relative viability (Serdemetan; 1.265 µM) | relative viability (Serdemetan; 4 µM) | relative viability (Selisistat; 0.4 µM) | relative viability (Selisistat; 1.265 µM) | relative viability (Selisistat; 4 µM) | relative viability (Selisistat; 12.65 µM) | relative viability (Selisistat; 40 µM) | relative viability (Serdemetan + Pemetrexed; first compound 0.04 µM) | relative viability (Serdemetan + Pemetrexed; first compound 0.1265 µM) | relative viability (Serdemetan + Pemetrexed; first compound 0.4 µM) | relative viability (Serdemetan + Pemetrexed; first compound 1.265 µM) | relative viability (Serdemetan + Pemetrexed; first compound 4 µM) | relative viability (Selisistat + OSI-027; first compound 0.4 µM) | relative viability (Selisistat + OSI-027; first compound 1.265 µM) | relative viability (Selisistat + OSI-027; first compound 4 µM) | relative viability (Selisistat + OSI-027; first compound 12.65 µM) | relative viability (Selisistat + OSI-027; first compound 40 µM)
1 | HCC-78 | 0.998 | 0.752 | 0.842 | 0.828 | 0.648 | 0.954 | 1.08 | 0.7 | 0.875 | 0.939 | 0.93 | 0.879 | 0.903 | 0.917 | 0.915 | 0.379 | 0.346 | 0.316 | 0.382 | 0.359
2 | HCC-366 | 1 | 0.989 | 0.978 | 0.121 | 0.101 | 0.997 | 0.957 | 0.894 | 1.01 | 1 | 0.177 | 0.135 | 0.15 | 0.0885 | 0.055 | 1.01 | 0.837 | 0.605 | 0.889 | 0.898
3 | HCC-827 | 1.04 | 0.972 |  | 0.862 | 0.83 | 1.02 | 1.04 | 0.952 | 0.975 | 1 | 0.218 | 0.191 |  | 0.2 | 0.227 | 0.763 | 0.766 | 0.705 | 0.746 | 0.768
4 | HOP-62 | 1.03 | 0.999 | 1.01 | 0.873 | 0.907 | 0.997 | 0.987 | 0.861 | 0.928 | 1.07 | 0.293 | 0.368 | 0.307 | 0.333 | 0.365 | 0.856 | 0.788 | 0.826 | 0.809 | 0.915
5 | IA-LM | 0.942 | 0.963 | 0.956 | 0.711 | 0.505 | 0.945 | 0.959 | 0.918 | 0.9 | 1.01 |  |  |  |  |  |  |  |  |  | 
6 | LC-2-ad | 1 | 0.962 | 0.911 | 0.962 | 0.872 | 1.05 | 0.762 | 0.794 | 0.926 | 1.01 | 0.255 | 0.231 | 0.269 | 0.255 | 0.267 | 0.987 |  | 0.693 | 0.85 | 0.794
7 | LCLC-97TM1 | 1.08 | 0.975 | 0.925 | 0.802 | 0.894 | 0.941 | 0.933 |  | 0.962 | 1.09 | 0.147 | 0.196 | 0.188 | 0.153 | 0.197 | 0.59 | 0.653 |  | 0.553 | 0.619
8 | LCLC-103H | 0.993 | 1.01 | 0.995 | 0.877 | 1.04 | 1.06 | 1.05 | 0.819 | 0.947 | 0.988 | 0.447 | 0.49 | 0.481 | 0.386 | 0.454 | 0.486 | 0.469 | 0.348 | 0.479 | 0.442
9 | LK-2 | 0.999 | 1.02 | 1.01 | 0.848 | 0.887 | 0.963 | 0.891 | 1 | 0.913 | 1.02 | 0.261 | 0.206 | 0.225 | 0.265 | 0.241 | 0.196 | 0.179 | 0.174 | 0.179 | 0.255
10 | LOU-NH91 | 1.02 | 0.946 | 0.694 | 0.783 | 0.999 | 1.05 | 0.938 | 0.884 | 0.966 | 0.973 | 0.394 | 0.383 |  |  | 0.419 | 0.814 | 0.715 | 0.675 | 0.756 | 0.708
11 | LU99A | 1.01 | 0.911 | 0.903 | 0.52 | 0.427 | 1.09 | 0.992 | 0.987 | 0.874 | 1.01 | 0.177 | 0.182 | 0.345 | 0.15 | 0.16 | 0.345 | 0.283 | 0.344 | 0.288 | 0.297
12 | LXF-289 | 1.02 | 0.996 | 0.933 | 0.84 | 0.885 | 1.05 | 1.03 | 0.867 | 0.949 | 1.07 | 0.894 | 0.989 | 0.86 | 0.76 | 0.795 | 0.797 | 0.806 | 0.667 | 0.788 | 0.838
13 | NCI-H23 | 0.972 | 1.17 | 1.11 | 0.817 | 1.04 | 0.989 | 0.941 |  | 0.906 | 1.08 | 0.649 | 0.789 | 0.722 |  | 0.763 | 0.56 | 0.602 | 0.508 | 0.529 | 0.605
14 | NCI-H322M | 0.9 | 1 | 0.901 | 0.791 | 0.874 | 0.98 | 1.01 |  | 0.994 | 1.01 | 0.576 | 0.583 | 0.622 | 0.645 | 0.628 | 0.607 | 0.583 | 0.461 | 0.507 | 0.576
15 | NCI-H358 | 0.897 | 0.905 | 0.901 | 0.81 | 0.798 | 0.989 | 0.925 |  | 1.06 | 0.976 | 0.173 | 0.155 | 0.18 | 0.148 | 0.163 | 0.926 | 0.802 | 0.363 | 0.709 | 0.905
16 | NCI-H727 | 0.936 | 0.808 | 1.07 | 0.669 | 0.555 | 0.95 | 1 |  | 0.863 | 0.895 |  |  |  |  |  | 0.587 | 0.641 |  | 0.641 | 0.511
17 | NCI-H1299 | 1.01 | 1 | 0.975 | 0.895 | 0.754 | 1.05 | 1.03 | 1.04 | 1.02 | 1.01 |  |  |  |  |  |  |  |  |  | 
18 | NCI-H1623 | 0.969 | 1.02 | 0.961 | 0.815 | 0.713 | 1.08 | 1.08 | 0.843 | 1.09 | 1.18 |  |  |  |  |  | 0.421 | 0.413 | 0.366 | 0.46 | 0.451
19 | NCI-H1703 | 1.08 | 0.84 | 0.882 | 0.764 | 0.71 | 0.894 | 0.834 | 0.9 | 0.853 | 0.848 |  |  |  |  |  |  |  |  |  | 
